From BindingDB's records for doi:10.1021/jm801343r (University of Washington At Seattle, 2009) come the findings set out here.

The IC50 is the point on the concentration scale where inhibition reaches its midpoint. High values mean weaker potency in that assay, low ones greater potency in that assay.

Holding throughout (assay): DHODH Inhibition Assay
Test [1] has as its target T1, Dihydroorotate dehydrogenase (quinone), mitochondrial [100-517] (Plasmodium berghei (strain Anka), UniProt A0A509AEH5).
T1 construct: 100-517
T1 sequence (A0A509AEH5 whole entry): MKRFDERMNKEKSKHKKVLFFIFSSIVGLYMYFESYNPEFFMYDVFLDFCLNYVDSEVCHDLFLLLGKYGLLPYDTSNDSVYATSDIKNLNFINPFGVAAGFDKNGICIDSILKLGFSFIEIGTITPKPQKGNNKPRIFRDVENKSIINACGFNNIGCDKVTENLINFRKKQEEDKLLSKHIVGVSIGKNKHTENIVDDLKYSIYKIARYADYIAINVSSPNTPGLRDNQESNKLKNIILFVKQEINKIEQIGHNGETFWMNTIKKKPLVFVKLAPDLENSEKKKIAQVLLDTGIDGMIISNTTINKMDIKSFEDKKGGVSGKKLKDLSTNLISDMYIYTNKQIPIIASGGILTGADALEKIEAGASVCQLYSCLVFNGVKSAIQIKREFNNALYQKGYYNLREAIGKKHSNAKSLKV
Here is the method: (§1) The assays were carried out by using a colorimetric DCIP method, which uses the colorimetric reagent 2, 6-dichlorophenolindophenol as the final electron acceptor. DCIP reduction is stoichiometrically equivalent to oxidation of dihydroorotate. Changes in absorbance were quantified on a plate reader and data were analyzed to measure the reduction of DCIP as a decrease in absorbance at 600 nm.

Test [2] has as its target T2, Dihydroorotate dehydrogenase (quinone), mitochondrial (Plasmodium falciparum (isolate 3D7), UniProt Q08210).
T2 sequence (Q08210 whole entry): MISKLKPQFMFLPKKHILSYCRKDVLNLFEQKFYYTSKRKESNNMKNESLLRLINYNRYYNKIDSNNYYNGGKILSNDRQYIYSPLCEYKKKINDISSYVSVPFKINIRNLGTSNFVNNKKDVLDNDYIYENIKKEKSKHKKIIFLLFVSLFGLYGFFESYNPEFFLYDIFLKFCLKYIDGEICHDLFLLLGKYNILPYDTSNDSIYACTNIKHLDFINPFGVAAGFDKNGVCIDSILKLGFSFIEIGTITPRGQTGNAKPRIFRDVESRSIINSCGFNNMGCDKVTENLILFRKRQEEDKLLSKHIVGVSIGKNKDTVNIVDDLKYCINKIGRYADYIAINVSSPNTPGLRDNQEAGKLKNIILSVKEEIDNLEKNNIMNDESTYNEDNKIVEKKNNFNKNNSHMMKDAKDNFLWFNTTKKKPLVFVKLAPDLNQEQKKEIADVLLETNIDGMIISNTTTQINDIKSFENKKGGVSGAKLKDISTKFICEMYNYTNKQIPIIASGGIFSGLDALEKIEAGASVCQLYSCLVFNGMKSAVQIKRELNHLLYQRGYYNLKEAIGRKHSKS
Here is the method:
as §1

Test [3] concerns the target T3, Dihydroorotate dehydrogenase (quinone), mitochondrial [30-395] (Homo sapiens, UniProt Q02127).
T3 construct: 30-395
How it is done:
as §1

T3 sequence (Q02127 30-395): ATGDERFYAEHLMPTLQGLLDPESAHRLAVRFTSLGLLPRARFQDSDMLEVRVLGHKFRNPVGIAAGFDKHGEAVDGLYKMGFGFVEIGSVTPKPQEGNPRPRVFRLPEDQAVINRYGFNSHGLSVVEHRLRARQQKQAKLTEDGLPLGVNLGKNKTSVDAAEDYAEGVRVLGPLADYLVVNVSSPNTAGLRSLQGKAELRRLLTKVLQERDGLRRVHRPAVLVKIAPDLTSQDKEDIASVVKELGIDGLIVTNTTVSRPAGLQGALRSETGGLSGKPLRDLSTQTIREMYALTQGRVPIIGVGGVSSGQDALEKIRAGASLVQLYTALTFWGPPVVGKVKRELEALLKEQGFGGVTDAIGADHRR

On to `Cc1cc(Nc2ccccc2C#N)n2ncnc2n1` [2-({5-methyl-[1,2,4]triazolo[1,5-a]pyrimidin-7-yl}amino)benzonitrile], for which the IC50 is greater than 100 µM in test [1] and greater than 100 µM in test [2] (pH 8, 20 °C).

Turning to `Cc1cc(Nc2c(F)c(F)c(F)c(F)c2F)n2ncnc2n1` [5-methyl-N-(2,3,4,5,6-pentafluorophenyl)-[1,2,4]triazolo[1,5-a]pyrimidin-7-amine], the IC50 in test [1] and in test [2] was greater than 100 µM throughout.

Consider `Cc1cc(Nc2ccc(F)c(F)c2F)n2ncnc2n1` [5-methyl-N-(2,3,4-trifluorophenyl)-[1,2,4]triazolo[1,5-a]pyrimidin-7-amine], for which, in test [1], the IC50 was greater than 100 µM.

On to `Cc1cc(Nc2c(F)c(F)cc(F)c2F)n2ncnc2n1` [5-methyl-N-(2,3,5,6-tetrafluorophenyl)-[1,2,4]triazolo[1,5-a]pyrimidin-7-amine], for which the IC50 in test [1] is greater than 100 µM; in test [2] (pH 8, 20 °C) it was greater than 100 µM.

Compound `Cc1cc(Nc2cc(F)c(F)cc2F)n2ncnc2n1` [5-methyl-N-(2,4,5-trifluorophenyl)-[1,2,4]triazolo[1,5-a]pyrimidin-7-amine] registered an IC50 in test [1] greater than 100 µM.

Consider `Cc1cc(Nc2c(F)cc(F)cc2F)n2ncnc2n1` [5-methyl-N-(2,4,6-trifluorophenyl)-[1,2,4]triazolo[1,5-a]pyrimidin-7-amine], for which the IC50 in test [1] was greater than 100 µM; in test [2] (pH 8, 20 °C) it was greater than 100 µM.

For `Cc1cc(Nc2ccccc2C)n2ncnc2n1` [5-methyl-N-(2-methylphenyl)-[1,2,4]triazolo[1,5-a]pyrimidin-7-amine], the IC50 in test [1] was greater than 100 µM; in test [2] (pH 8, 20 °C), greater than 100 µM.

As for `Cc1cccc(Nc2cc(C)nc3ncnn23)c1` [5-methyl-N-(3-methylphenyl)-[1,2,4]triazolo[1,5-a]pyrimidin-7-amine], in test [1], the IC50 was greater than 100 µM.

Turning to `Cc1cc(Nc2ccccc2C(F)(F)F)n2ncnc2n1` [5-methyl-N-[2-(trifluoromethyl)phenyl]-[1,2,4]triazolo[1,5-a]pyrimidin-7-amine], the IC50 was greater than 100 µM in test [1] and greater than 100 µM in test [2] (pH 8, 20 °C).

`Cc1cc(Nc2ccc3ccccc3c2)n2ncnc2n1` [JMC521864 Compund DSM1]: the IC50 in test [3] is greater than 200 µM.

As to `Cc1cc(Nc2ccccc2)n2ncnc2n1` [JMC521864 Compund DSM12], the IC50 in test [1] was greater than 10 µM; in test [2] (pH 8, 20 °C), greater than 200 µM; in test [3] it was greater than 200 µM.

Regarding `Cc1cc(Nc2cccc(F)c2F)n2ncnc2n1` [N-(2,3-difluorophenyl)-5-methyl-[1,2,4]triazolo[1,5-a]pyrimidin-7-amine], the IC50 in test [1] was greater than 100 µM.

Turning to `Cc1cc(Nc2cc(F)ccc2F)n2ncnc2n1` [N-(2,5-difluorophenyl)-5-methyl-[1,2,4]triazolo[1,5-a]pyrimidin-7-amine], the IC50 in test [1] is greater than 100 µM; in test [2] (pH 8, 20 °C) it was greater than 50 µM.

Turning to `Cc1cc(Nc2c(F)cccc2F)n2ncnc2n1` [N-(2,6-difluorophenyl)-5-methyl-[1,2,4]triazolo[1,5-a]pyrimidin-7-amine], the IC50 in test [1] is greater than 100 µM; in test [2] (pH 8, 20 °C), greater than 100 µM.

Take `Cc1cc(Nc2ccccc2Cl)n2ncnc2n1` [N-(2-chlorophenyl)-5-methyl-[1,2,4]triazolo[1,5-a]pyrimidin-7-amine]: the IC50 in test [1] is greater than 100 µM; in test [2] (pH 8, 20 °C), greater than 100 µM.

In test [1], `Cc1ccc(Nc2cc(C)nc3ncnn23)c(F)c1` [N-(2-fluoro-4-methylphenyl)-5-methyl-[1,2,4]triazolo[1,5-a]pyrimidin-7-amine] returned an IC50 greater than 100 µM.

Regarding `Cc1cc(Nc2ccccc2F)n2ncnc2n1` [N-(2-fluorophenyl)-5-methyl-[1,2,4]triazolo[1,5-a]pyrimidin-7-amine], the IC50 in test [1] is greater than 100 µM; in test [2] (pH 8, 20 °C), greater than 100 µM.

With `Cc1cc(Nc2cccc(F)c2)n2ncnc2n1` [N-(3-fluorophenyl)-5-methyl-[1,2,4]triazolo[1,5-a]pyrimidin-7-amine], the IC50 in test [1] was greater than 100 µM.

With `Cc1cc(Nc2ccc(Cc3ccccc3)cc2)n2ncnc2n1` [N-(4-benzylphenyl)-5-methyl-[1,2,4]triazolo[1,5-a]pyrimidin-7-amine], the IC50 in test [1] is greater than 100 µM.

Consider `Cc1cc(Nc2ccc(F)cc2)n2ncnc2n1` [N-(4-fluorophenyl)-5-methyl-[1,2,4]triazolo[1,5-a]pyrimidin-7-amine], for which, in test [1], the IC50 is greater than 100 µM.

With `COc1ccc(Nc2cc(C)nc3ncnn23)cc1` [N-(4-methoxyphenyl)-5-methyl-[1,2,4]triazolo[1,5-a]pyrimidin-7-amine], the IC50 in test [1] is greater than 50 µM.

For `Cc1cc(Nc2ccc3cc4ccccc4cc3c2)n2ncnc2n1` [N-(anthracen-2-yl)-5-methyl-[1,2,4]triazolo[1,5-a]pyrimidin-7-amine], the IC50 in test [1] was 3.7 µM; in test [3] it was greater than 200 µM.

For `Cc1cc(Nc2cc(C(F)(F)F)cc(C(F)(F)F)c2)n2ncnc2n1` [N-[3,5-bis(trifluoromethyl)phenyl]-5-methyl-[1,2,4]triazolo[1,5-a]pyrimidin-7-amine], the 50% inhibitory concentration (IC50) in test [1] and in test [2] was greater than 100 µM in each case.
